Measured values published in patent US20080119462A1, “METHOD FOR TREATING VASCULAR HYPERPERMEABLE DISEASE” (Sucampo AG, priority 2003, published 2008).
pIC50: −log10 of the molar value.

Columns and labels:
Rat plasma SSAO = biological target: T1, Rat plasma SSAO (Rattus norvegicus, UniProt O08590); assay: Radiochemical-enzyme assay of VAP-1 enzyme (SSAO) activity with 14C-benzylamine, rat plasma; type: biochemical
T1 construct: The enzyme suspension prepared from blood plasma was pre-incubated with Compound A; from tissue; host or cells: rat blood plasma
T1 sequence (O08590 27-763 limits assumed): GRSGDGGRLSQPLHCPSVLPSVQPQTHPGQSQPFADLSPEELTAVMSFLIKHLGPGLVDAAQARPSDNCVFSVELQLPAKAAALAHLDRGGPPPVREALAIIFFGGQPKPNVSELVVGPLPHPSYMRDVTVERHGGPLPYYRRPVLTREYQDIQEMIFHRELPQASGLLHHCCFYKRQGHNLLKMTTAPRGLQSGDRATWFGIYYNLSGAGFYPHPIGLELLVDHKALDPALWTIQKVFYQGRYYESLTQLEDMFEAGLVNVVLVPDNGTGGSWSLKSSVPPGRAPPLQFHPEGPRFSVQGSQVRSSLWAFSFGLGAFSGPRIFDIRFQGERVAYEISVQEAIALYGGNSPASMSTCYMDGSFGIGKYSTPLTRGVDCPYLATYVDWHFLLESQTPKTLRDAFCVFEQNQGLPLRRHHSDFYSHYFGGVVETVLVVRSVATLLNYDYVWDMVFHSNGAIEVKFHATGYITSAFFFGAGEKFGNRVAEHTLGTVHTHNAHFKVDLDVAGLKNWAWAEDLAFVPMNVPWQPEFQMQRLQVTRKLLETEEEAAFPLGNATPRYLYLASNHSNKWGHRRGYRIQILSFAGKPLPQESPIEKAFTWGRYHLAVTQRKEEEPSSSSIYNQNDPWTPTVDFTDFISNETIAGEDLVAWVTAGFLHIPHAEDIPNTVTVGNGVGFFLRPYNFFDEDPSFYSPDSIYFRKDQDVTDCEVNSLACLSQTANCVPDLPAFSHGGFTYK
Procedure: VAP-1 enzyme (SSAO) activity in both human and rat plasma was determined by a radiochemical-enzyme assay using ^14C-benzylamine as artificial substrate. The enzyme suspension prepared from blood plasma was pre-incubated with Compound A in 96-well microplate at room temperature for 30 min. The enzyme suspension was then incubated with ^14C-benzylamine (2×10^−5 mol/l final concentration) in a final volume of 50 μl at 37° C. for 1 hour. The enzyme reaction was terminated by adding 2 mol/l (50 μl) citric acid. The oxidized products were directly extracted into a 200 μl toluene scintillator, and its radioactivity was measured by a scintillation spectrometer. Monoamine oxidase (MAO) and diamine oxidase (DAO, histaminase) activities were also determined by similar method using ^14C-phenylethylamine and ^14C-putrescine as substrate, respectively. Cloned DAO from cDNA libraries was used in human DAO assay. Inhibition activity was expressed as IC50 (μmol/l) value.

diabetic rats = assay: Ocular permeability in STZ diabetic rats (leakage of fluorescein into the vitreous); type: in vivo, rat; details: 10 mg/kg, s.c. u.i.d., daily from 2 weeks after STZ for 2 weeks, mean ± S.E.M., 10 rats
Procedure: Diabetes in rats was induced with an intraperitoneal (i.p.) injection of 65 mg/ml/kg of streptozotocin (STZ) in 2 mmol/l citrate buffer (pH 4.5) after a 20-h fast. At the same time control rats were injected with an equal volume of 2 mmol/l citrate buffer. Plasma glucose level was checked by a calorimetric method. At day 3 of STZ treatment, the rats were diagnosed with diabetes showing a plasma glucose level of 350 mg/dl.
The treatment of Compound A was given daily from 2 weeks after STZ treatment for 2 weeks. At 24 hrs after final treatment of Compound A, the vascular permeability in oculus was investigated based on the leakage of dye into the vitreous 30 min after intravenous injection of fluorescein solution (40 mg/ml/kg). Permeability was expressed as vitreous/plasma ratio of fluorescein concentration measured by a fluorophotometer. At the same time, the plasma SSAO activity was checked by the radiochemical-enzyme assay using ^14C-benzylamine (2×10^−5 mol/l final concentration) as substrate.
In the same manner as in Example 2, the effect of various VAP-1 inhibitors on ocular permeability was determined in diabetic rats.

Inhibition of the enzyme activity of rat plasma SSAO (in words) (Rat plasma SSAO): completely inhibited
pIC50 (Rat plasma SSAO; 30 min pre-incubation, 14C-benzylamine 2×10^−5 mol/l, 37° C., 1 hour, read-out: Inhibitory effect (IC50 values) Rat plasma SSAO): 7.92
SMILES: CC(=O)Nc1nc(CCc2ccc(NC(=N)N)cc2)cs1 [Compound A, N-{4-[2-(4-{[amino(imino)methyl]amino}phenyl)ethyl]-1,3-thiazol-2-yl}acetamide]
Vitreous/Plasma Ratio of Fluorescein Concentration (diabetic rats): 5.39 ± 0.73 ×10^−3
